Laboratory results taken from ChEMBL document CHEMBL1201862, “PubChem BioAssay data set” (2004).
Active and inactive are the calls of the source.

Experiments:
[1] = target: Ras and Rab interactor 1/Tyrosine-protein kinase ABL1 (Homo sapiens, UniProt P00519+Q13671); type: functional;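 also: biochemical TR-FRET dose-response test measuring inhibition of binding between Rin1 and Abl proteins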
Cytochrome P450 1A2 = target: T1, Cytochrome P450 1A2 (Homo sapiens, UniProt P05177);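 also: PubChem cytochrome P450 panel assay, CYP1A2 panel member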
T1 sequence (P05177 whole entry): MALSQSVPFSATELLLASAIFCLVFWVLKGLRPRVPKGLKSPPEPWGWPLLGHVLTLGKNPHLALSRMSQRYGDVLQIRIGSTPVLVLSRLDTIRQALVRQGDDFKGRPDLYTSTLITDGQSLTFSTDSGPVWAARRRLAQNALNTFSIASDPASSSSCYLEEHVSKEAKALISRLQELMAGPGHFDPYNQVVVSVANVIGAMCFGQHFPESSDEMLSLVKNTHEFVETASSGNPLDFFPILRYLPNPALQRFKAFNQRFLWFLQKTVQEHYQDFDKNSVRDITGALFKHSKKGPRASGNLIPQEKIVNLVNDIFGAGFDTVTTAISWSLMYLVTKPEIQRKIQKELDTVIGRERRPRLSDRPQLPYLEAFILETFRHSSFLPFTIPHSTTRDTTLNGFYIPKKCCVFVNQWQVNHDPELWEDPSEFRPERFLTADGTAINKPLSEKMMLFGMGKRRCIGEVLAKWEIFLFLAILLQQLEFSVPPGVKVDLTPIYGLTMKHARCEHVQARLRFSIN

Cytochrome P450 2C9 = Cytochrome P450 2C9 (Homo sapiens, UniProt P11712)
Sequence of Cytochrome P450 2C9 (P11712 whole entry): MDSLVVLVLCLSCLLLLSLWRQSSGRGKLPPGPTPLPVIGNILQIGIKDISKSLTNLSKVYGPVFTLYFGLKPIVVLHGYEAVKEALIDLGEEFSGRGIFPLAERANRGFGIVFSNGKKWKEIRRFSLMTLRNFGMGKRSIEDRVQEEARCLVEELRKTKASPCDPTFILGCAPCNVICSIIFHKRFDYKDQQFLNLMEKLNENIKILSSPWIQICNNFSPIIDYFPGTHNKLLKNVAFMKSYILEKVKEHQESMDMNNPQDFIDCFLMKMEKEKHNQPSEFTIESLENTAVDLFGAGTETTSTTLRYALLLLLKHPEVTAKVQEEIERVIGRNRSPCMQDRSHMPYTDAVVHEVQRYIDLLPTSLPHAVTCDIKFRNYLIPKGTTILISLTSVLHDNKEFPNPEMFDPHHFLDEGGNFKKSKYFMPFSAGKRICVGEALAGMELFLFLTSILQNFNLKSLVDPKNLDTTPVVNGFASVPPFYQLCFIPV

Beta-lactamase [2] = target: T2, Beta-lactamase (Pseudomonas aeruginosa, UniProt Q79MP6); assay: […] counterscreen for selective VIM-2 inhibitors: dose response biochemical high throughput screening assay to identify inhibitors of IMP-1 metallo-beta-lactamase.
T2 sequence (Q79MP6 whole entry): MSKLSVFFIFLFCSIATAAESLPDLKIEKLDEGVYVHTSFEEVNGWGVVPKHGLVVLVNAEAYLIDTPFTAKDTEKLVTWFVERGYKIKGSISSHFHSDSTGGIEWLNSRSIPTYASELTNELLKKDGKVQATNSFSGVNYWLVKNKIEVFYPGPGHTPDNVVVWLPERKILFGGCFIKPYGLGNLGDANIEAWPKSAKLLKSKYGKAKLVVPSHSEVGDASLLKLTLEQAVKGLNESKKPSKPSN

Beta-lactamase [3] = target: Beta-lactamase (Salmonella choleraesuis (strain SC-B67), UniProt Q5J463); assay: Epi-absorbance-based counterscreen for selective VIM-2 inhibitors: dose response biochemical high throughput screening assay to identify inhibitors of TEM-1 serine-beta-lactamase.
Sequence of Beta-lactamase (Salmonella choleraesuis (strain SC-B67), UniProt Q5J463) (Q5J463 whole entry): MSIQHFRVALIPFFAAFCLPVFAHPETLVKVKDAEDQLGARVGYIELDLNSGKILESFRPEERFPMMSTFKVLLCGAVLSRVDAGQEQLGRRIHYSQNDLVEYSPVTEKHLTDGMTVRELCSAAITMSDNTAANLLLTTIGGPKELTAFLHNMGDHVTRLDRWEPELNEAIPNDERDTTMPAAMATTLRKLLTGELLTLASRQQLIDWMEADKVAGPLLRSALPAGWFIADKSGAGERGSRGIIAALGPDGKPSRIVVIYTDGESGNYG

Beta-lactamase [4] = target: T2, Beta-lactamase; assay: inhibition of IMP-1 beta-lactamase activity – biochemical, epi-absorbance, selectivity assay for VIM-2 inhibitor project, dose response (AID 1920)
[5] = off-target signal loss in HeLa-CEM21 co-culture – HeLa F-luc CTL cells, cherry-picked, counter-screen for HIV-1 Env fusion inhibitor project, dose response (AID 652040); type: functional, cell-based;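 also: potency for signal decrease marking cytotoxic or nonspecific inhibition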
[6] = viability loss in CEM21 cells – cell-based, CellTiter-Glo luminescence, cherry-picked, cytotoxicity control for viral fusion inhibitor project, dose response (AID 652042); type: functional;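 also: potency for signal decrease meaning cytotoxicity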
[7] = blockers of HIV-1 ZM109 envelope-driven cell-cell fusion – HeLa effector, CEM target cells, luciferase, cherry-pick, dose response (AID 652058); type: functional, cell-based;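 also: luciferase signal from HIV-1 Env mediated cell-cell fusion of effector and target cells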
[8] = HIV-1 AD8 envelope cell-cell fusion blockers – cherry-pick, dose response (AID 652062); type: functional, cell-based;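 also: luciferase signal from cell-cell fusion driven by HIV-1 clade B AD8 Env; potency is for inhibitors of fusion seen as a drop in luminescence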
[9] = blockers of HIV-1 envelope-mediated cell-cell fusion – cherry-pick, dose response (AID 652057); type: functional, cell-based
Beta-galactosidase = Beta-galactosidase (Escherichia coli, UniProt Q8VNN2); assay: Dose response counterscreen for EBI2 assay utilizing the enzyme, b-galactosidase.; type: functional
Sequence of Beta-galactosidase (Q8VNN2 whole entry): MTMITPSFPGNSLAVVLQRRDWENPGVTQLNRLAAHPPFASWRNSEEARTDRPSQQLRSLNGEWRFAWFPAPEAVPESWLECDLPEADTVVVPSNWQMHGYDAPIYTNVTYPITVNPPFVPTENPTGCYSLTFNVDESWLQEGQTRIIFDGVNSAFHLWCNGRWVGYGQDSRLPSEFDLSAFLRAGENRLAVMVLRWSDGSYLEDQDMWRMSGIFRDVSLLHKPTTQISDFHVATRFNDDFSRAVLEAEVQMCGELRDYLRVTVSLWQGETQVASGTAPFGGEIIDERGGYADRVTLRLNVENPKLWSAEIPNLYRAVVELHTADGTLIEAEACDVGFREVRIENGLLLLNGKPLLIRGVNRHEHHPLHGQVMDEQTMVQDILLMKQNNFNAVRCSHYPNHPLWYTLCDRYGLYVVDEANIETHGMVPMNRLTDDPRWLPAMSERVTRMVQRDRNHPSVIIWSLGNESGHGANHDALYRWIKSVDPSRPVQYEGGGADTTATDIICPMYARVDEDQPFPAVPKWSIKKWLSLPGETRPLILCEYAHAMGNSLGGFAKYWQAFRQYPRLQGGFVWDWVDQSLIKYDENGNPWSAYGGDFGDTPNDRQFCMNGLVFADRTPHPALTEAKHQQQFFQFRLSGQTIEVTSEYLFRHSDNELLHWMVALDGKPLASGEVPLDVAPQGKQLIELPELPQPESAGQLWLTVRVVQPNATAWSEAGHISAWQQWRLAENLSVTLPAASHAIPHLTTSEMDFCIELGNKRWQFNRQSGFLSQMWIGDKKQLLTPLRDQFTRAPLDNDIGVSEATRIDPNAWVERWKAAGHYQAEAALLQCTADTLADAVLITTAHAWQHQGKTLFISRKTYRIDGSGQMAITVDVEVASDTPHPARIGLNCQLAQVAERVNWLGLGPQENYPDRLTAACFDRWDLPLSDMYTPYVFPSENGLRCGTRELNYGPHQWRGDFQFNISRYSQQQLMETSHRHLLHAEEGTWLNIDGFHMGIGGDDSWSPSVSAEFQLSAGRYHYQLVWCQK

Phospholipase A2 = Phospholipase A2 (Homo sapiens, UniProt P04054); type: functional;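 also: confirmatory dose-response counterscreen on phospholipase A2, testing hits that came from an ultra-high-throughput screen for ATG4B inhibitors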
Sequence of Phospholipase A2 (P04054 whole entry): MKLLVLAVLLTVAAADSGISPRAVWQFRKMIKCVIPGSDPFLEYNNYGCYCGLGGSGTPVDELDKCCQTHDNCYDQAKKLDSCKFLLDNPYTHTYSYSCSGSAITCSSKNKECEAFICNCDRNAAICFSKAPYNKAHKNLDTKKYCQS

Cysteine protease ATG4B = target: T3, Cysteine protease ATG4B (Homo sapiens, UniProt Q9Y4P1); type: functional;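 also: Fluorescence-based dose-response confirmation assay measuring inhibition of ATG4B activity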
T3 sequence (Q9Y4P1 whole entry): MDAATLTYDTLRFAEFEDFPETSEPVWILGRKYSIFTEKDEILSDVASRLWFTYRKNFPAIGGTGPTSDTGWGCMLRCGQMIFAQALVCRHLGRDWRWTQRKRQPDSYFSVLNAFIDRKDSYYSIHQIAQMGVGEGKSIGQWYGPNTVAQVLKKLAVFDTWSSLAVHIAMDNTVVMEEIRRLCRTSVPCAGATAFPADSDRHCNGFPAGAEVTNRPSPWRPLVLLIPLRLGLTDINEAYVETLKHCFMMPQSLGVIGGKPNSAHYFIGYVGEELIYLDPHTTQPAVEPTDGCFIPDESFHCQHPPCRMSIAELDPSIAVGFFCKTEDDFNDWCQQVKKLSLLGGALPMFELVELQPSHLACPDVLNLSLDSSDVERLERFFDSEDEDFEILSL

[10] = Luminescence Cell-Based Dose Retest to Confirm Inhibitors of Cancer Stem Cells. [Related pubchem assays (depositor defined):AID2717, AID2721]; type: functional; details: Homo sapiens
[11] = Trypanosoma cruzi growth suppression in host cells – NIH3T3 host cells, beta-gal luminescence, confirmation (AID 2044); type: functional, cell-based;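 also: intracellular parasites grown in NIH/3T3 mouse fibroblasts as host cells; luminescent beta-galactosidase reporter signal from transgenic T. cruzi replicating inside host cells; inhibitors lower the luminescence signal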
[12] = NIH3T3 cell viability loss – ATP luminescence, mouse fibroblasts, counter-screen, dose response (AID 2010); type: functional, cell-based;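 also: cells exposed to compound for about 90 hours before reading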
[13] = target: DNA repair and recombination protein RAD54-like (Homo sapiens, UniProt Q92698); assay: RAD54 Holliday junction migration blockers – biochemical, fluorescence, cherry-picked samples, dose series, confirmation (AID 651657); type: functional
Sequence of DNA repair and recombination protein RAD54-like (Q92698 whole entry): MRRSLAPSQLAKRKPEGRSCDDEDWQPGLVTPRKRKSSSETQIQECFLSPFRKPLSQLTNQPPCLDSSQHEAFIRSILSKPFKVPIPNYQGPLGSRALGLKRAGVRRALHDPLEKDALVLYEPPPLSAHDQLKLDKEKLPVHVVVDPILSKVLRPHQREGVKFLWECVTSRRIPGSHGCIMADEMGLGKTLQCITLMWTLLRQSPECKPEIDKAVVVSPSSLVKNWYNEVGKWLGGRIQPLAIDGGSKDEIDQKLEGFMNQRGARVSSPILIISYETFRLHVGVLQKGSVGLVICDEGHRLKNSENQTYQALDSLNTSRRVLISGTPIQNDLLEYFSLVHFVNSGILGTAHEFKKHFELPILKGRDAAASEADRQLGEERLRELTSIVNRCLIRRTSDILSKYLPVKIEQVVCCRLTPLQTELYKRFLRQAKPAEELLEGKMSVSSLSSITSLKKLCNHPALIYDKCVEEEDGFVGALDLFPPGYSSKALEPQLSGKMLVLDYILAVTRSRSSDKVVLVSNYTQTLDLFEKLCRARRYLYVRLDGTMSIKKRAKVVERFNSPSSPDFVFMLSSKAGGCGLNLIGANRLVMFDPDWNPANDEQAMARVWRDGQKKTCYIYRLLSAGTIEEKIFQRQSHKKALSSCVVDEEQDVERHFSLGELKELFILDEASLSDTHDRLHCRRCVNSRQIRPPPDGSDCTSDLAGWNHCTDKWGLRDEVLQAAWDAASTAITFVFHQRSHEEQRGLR

Sequence of Ras and Rab interactor 1/Tyrosine-protein kinase ABL1 (P00519 whole entry): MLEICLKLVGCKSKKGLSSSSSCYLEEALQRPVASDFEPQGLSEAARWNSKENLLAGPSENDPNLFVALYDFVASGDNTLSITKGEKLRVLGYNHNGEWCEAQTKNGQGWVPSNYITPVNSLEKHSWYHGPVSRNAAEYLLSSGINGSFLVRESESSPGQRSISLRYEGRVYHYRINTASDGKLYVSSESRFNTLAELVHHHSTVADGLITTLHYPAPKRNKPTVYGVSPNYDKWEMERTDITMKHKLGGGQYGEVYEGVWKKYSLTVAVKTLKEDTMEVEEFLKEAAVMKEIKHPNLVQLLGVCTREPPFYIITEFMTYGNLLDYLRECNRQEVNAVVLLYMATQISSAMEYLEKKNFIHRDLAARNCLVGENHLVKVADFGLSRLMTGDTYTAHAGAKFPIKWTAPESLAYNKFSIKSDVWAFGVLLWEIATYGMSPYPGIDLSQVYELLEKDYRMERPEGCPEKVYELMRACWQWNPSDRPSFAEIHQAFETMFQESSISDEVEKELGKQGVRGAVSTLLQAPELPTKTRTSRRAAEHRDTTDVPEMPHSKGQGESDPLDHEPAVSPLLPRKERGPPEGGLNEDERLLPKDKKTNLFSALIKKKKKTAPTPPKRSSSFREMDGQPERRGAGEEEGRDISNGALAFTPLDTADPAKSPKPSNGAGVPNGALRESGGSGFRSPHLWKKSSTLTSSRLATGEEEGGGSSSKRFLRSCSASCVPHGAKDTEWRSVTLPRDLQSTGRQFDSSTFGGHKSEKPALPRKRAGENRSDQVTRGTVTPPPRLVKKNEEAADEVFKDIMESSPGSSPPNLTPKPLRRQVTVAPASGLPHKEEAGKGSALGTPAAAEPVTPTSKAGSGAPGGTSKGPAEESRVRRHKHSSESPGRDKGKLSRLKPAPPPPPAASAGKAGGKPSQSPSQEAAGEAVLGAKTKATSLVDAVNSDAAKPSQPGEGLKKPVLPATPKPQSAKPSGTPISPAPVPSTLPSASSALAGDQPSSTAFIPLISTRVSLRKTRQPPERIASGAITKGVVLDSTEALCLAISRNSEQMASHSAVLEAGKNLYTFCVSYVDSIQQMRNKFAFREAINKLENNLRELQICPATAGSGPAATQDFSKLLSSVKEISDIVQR
Sequence of Ras and Rab interactor 1/Tyrosine-protein kinase ABL1 (Q13671 whole entry): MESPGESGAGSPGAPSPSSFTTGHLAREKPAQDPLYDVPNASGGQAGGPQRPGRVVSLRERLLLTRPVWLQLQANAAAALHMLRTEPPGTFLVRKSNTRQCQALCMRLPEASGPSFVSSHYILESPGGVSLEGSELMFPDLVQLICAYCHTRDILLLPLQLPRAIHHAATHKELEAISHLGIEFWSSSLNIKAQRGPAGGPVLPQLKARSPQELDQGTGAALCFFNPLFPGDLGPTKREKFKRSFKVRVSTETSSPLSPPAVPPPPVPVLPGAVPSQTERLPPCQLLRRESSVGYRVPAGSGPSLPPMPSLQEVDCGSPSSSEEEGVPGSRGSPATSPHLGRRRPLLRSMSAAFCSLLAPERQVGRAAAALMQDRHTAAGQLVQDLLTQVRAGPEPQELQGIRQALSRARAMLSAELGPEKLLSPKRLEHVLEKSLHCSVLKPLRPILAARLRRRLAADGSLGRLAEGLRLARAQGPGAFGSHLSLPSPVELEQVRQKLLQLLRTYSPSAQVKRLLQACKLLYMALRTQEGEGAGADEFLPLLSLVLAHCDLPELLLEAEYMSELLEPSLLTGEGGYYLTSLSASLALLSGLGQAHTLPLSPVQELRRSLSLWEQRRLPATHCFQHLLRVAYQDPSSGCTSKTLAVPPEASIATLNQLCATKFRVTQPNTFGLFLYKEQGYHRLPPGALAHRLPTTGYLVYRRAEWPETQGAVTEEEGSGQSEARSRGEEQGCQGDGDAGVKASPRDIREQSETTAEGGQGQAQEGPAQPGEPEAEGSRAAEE

## COc1ccc2oc(C(=O)NCC(c3ccco3)N(C)C)c(C)c2c1 (centres undefined)
[1]
  IC50: 3.82 µM (active)

## CCOC(=O)c1[nH]c(C(=O)O)c(CCC(=O)OC)c1C
Cytochrome P450 1A2
  AC50: 0.251 µM (inconclusive)
Cytochrome P450 2C9
  AC50: 31.6 µM (inconclusive)
Beta-lactamase [2]
  IC50: 29.4 µM (inactive)
Beta-lactamase [3]
  IC50: > 59.6 µM (inactive)
Beta-lactamase [4]
  IC50: > 59.6 µM (inactive)

## COc1ccc(C2c3c(-c4ccccc4O)n[nH]c3C(=O)N2CCc2ccc(OC)c(OC)c2)cc1 (centres undefined)
[5]
  AC50: 3.07 µM (active)
[6]
  AC50: 65.5 µM (active)
[7]
  AC50: 2.44 µM (active)
[8]
  AC50: 1.17 µM (active)
[9]
  AC50: 1.94 µM (active)

## O=C(Cc1ccc(NC(=O)C2CCN(C(=O)C3CCCC3)CC2)cc1)Nc1cccc(C(=O)N2CCCCC2)c1
[1]
  IC50: 29.2 µM (inactive)

## O=C(c1cc2ccccc2o1)N1CCN(S(=O)(=O)/C=C/c2ccccc2)CC1
Beta-galactosidase
  IC50: > 80 µM (inactive)

## CCC(=O)NC(=S)Nc1cccc(Cl)c1N1CCCCC1
[5]
  AC50: > 70 µM (inactive)
Phospholipase A2
  IC50: 3.78 µM (active)
[6]
  AC50: 36.5 µM (active)
[8]
  AC50: 38.5 µM (active)
[9]
  AC50: 17.3 µM (active)
Cysteine protease ATG4B
  IC50: 6.09 µM (active)
[10]
  AC50: 5.27 µM (active)

## O=C(c1ccc2ccccc2c1)N1CCN(S(=O)(=O)/C=C/c2ccccc2)CC1
Beta-galactosidase
  IC50: > 80 µM (inactive)
[11]
  EC50: 1.1 µM (active)
[12]
  EC50: > 30 µM (not active)

## NNC(=O)c1oc2nc(-c3cccs3)cc(-c3ccco3)c2c1N
[13]
  AC50: 16.6 µM (active)
